Measurements as given in a melting point compilation (Tetko et al.; mined from patent text by program, amines drawn as free bases though some values may be those of a salt).

melting point [°C] | SMILES
90 to 92 | Brc1ccc(-c2cc3cc(-c4ccccc4)ccc3o2)cc1
213 to 214 | CC(=O)NCC1CN(c2ccc(N3CCN(c4nc5ccc(F)c(F)c5o4)CC3)c(F)c2)C(=O)O1 (stereo not given)
172 to 174 | COc1ccc(-c2nc(-c3ccccc3Cl)sc2-c2ccc(S(C)(=O)=O)cc2)cc1
136 to 137 | CCCc1c(OCCCOc2ccc(Cl)c(Cl)c2)ccc2c1OC(CCC(=O)O)(CCC(=O)O)CC2=O
153 to 155 | O=C(O)C=CC(=O)c1ccco1
295 to 296 | Cc1[nH]c(-c2ccccc2)c2nc[nH]c(=O)c12
98 to 99 | CS(=O)(=O)c1ccc(-c2cc(CO[N+](=O)[O-])nn2CC2CCCCC2)cc1
55 | COC(=O)CCCc1cc2nc(Cl)ccc2n1S(=O)(=O)c1ccc2ncsc2c1
99 | Cc1nc2ccccc2n1Cc1c(F)cccc1F
191 to 195 | CC(C)(C)NC(=O)c1cccc(C(=O)O)c1O
40 to 42 | CCCCCCCC(CCCCCC)CCOC(=O)c1ccccc1N=NN1CCOCC1 (stereo not given)
179 to 180 | CS(=O)c1ccc(CSc2nnc(-c3ccc4ncsc4c3)o2)cc1C(F)(F)F (stereo not given)
237 to 239 | COc1cc(Nc2nc3cccc(-c4ccc(CNC(C)=O)cc4)c3o2)cc(OC)c1OC
214 | OCc1ccc(-c2ccc(O)cc2)c(-c2ccc(O)cc2)c1
169 to 172 | NC(=O)N[C@@H]1CCC[C@@H](O)c2sccc21 (relative stereo)
82 to 83 | CC[C@H]1CN(c2ccc(-c3ccnc(Nc4cc(OC)c(OC)c(OC)c4)n3)cn2)CCN1
96 to 105 | CCOC(=O)C1CCN(Cc2c[nH]c3cccc(F)c23)CC1
154 | COc1cccc(-c2ccc3c(C(=O)Nc4cccnc4)c(OC)ccc3c2)c1
145 to 147 | COc1ccccc1SCC(O)CN(C)Cc1cc2c(=O)c(C(=O)NCc3ccc(Cl)cc3)cn(C)c2o1 (stereo not given)
115 to 118 | CCc1ccc(C(=O)c2ccccc2C(=O)O)c(CC)c1
112 to 114 | O=C(Nc1ccnn1-c1c(F)c(F)c(C(F)(F)F)c(F)c1F)C(Cl)Cl
221 to 223 | Cc1cc(C)c(-c2cn(C)c3nc(NC(=O)N(C)C)n(C)c(=O)c23)c(C)c1

melting point [°C] | SMILES
82 to 84 | CCOC(=O)c1cnoc1-c1ccc(Cl)cc1Cl
209 to 211 | CCOC1(c2ccccc2)c2cc(Cl)ccc2NC(=O)N1c1ccccc1 (stereo not given)
135 to 136 | CCC(=O)C(CCCOc1ccc(OCCCc2c(CC)n[nH]c2CC)cc1)C(=O)CC
155 to 158 | COc1ccc2c(c1[N+](=O)[O-])C(=O)CC2
203 to 205 | O=C(O)c1ccc(NCCOc2ccc(Cl)cc2Cl)cc1
94 to 95 | COc1ccc(C(=O)c2sc3ccccc3c2-c2ccccc2)cc1
156 to 157 | CCC(=NOC)c1cc(I)c(O)c(CN)c1
90.2 | CNC(=O)C1CN(CCCC(c2ccc(F)cc2)c2ccc(F)cc2)CCN1CC(=O)Nc1c(C)cc(C)cc1C (stereo not given)
210 | CCOC1=CC(=O)N([C@@H]2c3cc(C#N)ccc3OC(C)(C)[C@H]2O)C1
232 to 233 | CCN1C(=O)CCCc2cc(Nc3ncc(Cl)c(Nc4ccccc4C(=O)NC)n3)c(OC)cc21
82 to 83 | COc1ccc(-n2nc(OCC(F)(F)F)nc2-c2ccc(OC)nc2)cc1
125 to 128 | CC(C)N1C(=O)c2ccccc2N(C(=O)c2cc(Oc3ccc(C(F)(F)F)cc3Cl)ccc2[N+](=O)[O-])S1(=O)=O
230 to 240 | CC(C)C1C(=O)N(CC(=O)O)C(c2ccccc2)=CN1C(=O)c1cccnc1 (racemic)
170 to 171 | CCCCCCCCOC(=O)c1[nH]c2cccc3c2c1CCNC3=O
182 to 185 | Cc1ccc(CC(=S)N2CCOCC2)cc1
215 | CNc1ccccc1C(=O)c1c(OC)cc(C)cc1OC
116 to 118 | CCCCCCCCCCCCCCOc1ccc(CC(=O)Nc2cccc(CBr)c2)cc1
179 | CS(=O)c1ccc(CSc2nc(-c3ccc(F)cc3)c(-c3ccnc(Cl)c3)[nH]2)cc1 (stereo not given)
134 to 136 | COc1ccc(Sc2ccccc2/C=C/C(=O)NCCCCO)cc1
174 to 177 | CCOC(=O)C(=O)Nc1nccs1
97 to 98.5 | CN(C)CCNC(=O)N1CCC(Sc2ccc(Cl)cc2)C1 (stereo not given)
75 to 80 | CC(C)c1ccc(S(=O)(=O)c2ccc(F)cc2)c(C(C)C)c1

melting point [°C] | SMILES
203 to 205 | c1ncn(-c2cc3cc[nH]c3cn2)n1
> 300 | Nc1cc(-c2ccncc2)n[nH]c1=O
216 to 218 | C[C@@H](O)c1nccc(N2CCn3c(nnc3-c3nc4ccccc4s3)C2)n1
91 | CC(=O)OCC1OC(N(CCCl)P(=O)(O)NCCCl)C(OC(C)=O)C(OC(C)=O)C1OC(C)=O (stereo not given)
244 to 246 | CCc1c(-c2ccc(OCc3ccccc3)cc2)c2cc(C(=O)O)c3c(NC(C)=O)ccc1n23
80 to 83 | O=C(O)c1ccc(SC(Cn2ccnc2)c2cccnc2)cc1 (stereo not given)
144 to 145 | FC(F)(F)c1cccc(N2CCC(N=Cc3ccc[nH]3)=N2)c1
178 to 181 | COc1cc(NC(C)=O)c(Cl)cc1C(=O)NN1CCN(Cc2cccs2)CC1
> 180 | Nc1ccc(Oc2ccccc2Oc2ccc(N)c(O)c2)cc1O
123 to 124 | O=c1ccn(-c2ccccc2OC(F)F)nc1-c1ccnn1-c1ccccc1
99 to 100 | O=C1NC(=O)C(Sc2ccc(F)cc2)S1 (stereo not given)
73 to 75 | CCOC(=O)C1CCc2cc(O)c(C(C)=O)cc2C1 (stereo not given)
96 | CCOC(=O)C=CC1C(C(=O)O)C1(C)C (stereo not given)
193 to 196 | CC[C@H](C)[C@@H]1NC(=S)c2ccccc2/C1=C/C(=O)OC
85 to 87 | CCOC(=O)c1c(C)nc(N2CCN(c3ccccc3)CC2)c2nccnc12
108 to 109 | CCSc1nc(-c2ccc(OC)cc2)c(-c2ccc(OC)cc2)[nH]1
157 to 160 | COc1cc(OCC(=O)N[C@@H]2CCN(Cc3ccccc3)C2)ccc1C=NNC(=O)c1ccc(O)c(N)c1
59 to 60 | Cc1ccc(C(=O)[C@@H]2[C@@H](C)CCCC2(C)C)cc1Cl
262 | CC(C)(C)NC(=O)c1ccc(S(=O)(=O)N2C(=O)C(C)(c3ccccc3Cl)c3cc(O)ccc32)cc1 (stereo not given)
99 to 101 | Fc1ccc(Oc2ccnc3c(Cl)cccc23)c(Cl)c1
158 to 160 | Cc1cc(C)c(Nc2nc(C)ccc2S(=O)(=O)c2ccc(OCc3ccccc3)cc2)c(C)c1
156 | Cc1cc(C=C2SC(=O)NC2=O)ccc1-c1cccc(CN(C)C(=O)OC(C)(C)C)c1

SMILES | melting point [°C]
CCCCCCC1C(=O)OC2OC3(C)CCC4C(C)CCC1C24OO3 (single isomer, unassigned; (+)) | 80.5 to 82
Cc1cc(Cl)cc(C(=O)NCC(C)O)c1NC(=O)c1cc(C(F)(F)F)nn1-c1ncccc1Cl (stereo not given) | 193 to 197
CONc1ccc([N+](=O)[O-])cc1[N+](=O)[O-] | 110 to 112
CC(=O)N(C)c1cccc(-c2ccnc3c(C#N)cnn23)c1 | 195 to 197
